Like-named read-outs stand apart in the source and are kept apart here.
Key:
[1] = in vivo
Description: In animals, the pharmacokinetics of each enantiomer were studied following administration of the racemate or of one single enantiomer.

primary rat hepatocytes = assay: Safe-Hit genomic test of predictive toxicology (Toxicity Index) on primary rat hepatocytes; assay type: cell-based; settings: 16 h
Description: After treatment of the primary rat hepatocytes in culture, the RNA was extracted in order to generate labelled complementary-DNA probes which were then hybridised on a membrane containing 682 alternatively-spliced fragments specific to cell stress. A Toxicity Index was obtained for each of the products by comparing the hybridisation profile of the treated cells with that of the untreated cells.
Safe-Hit allows molecules within a chemical series to be ranked according to a Toxic Index, determined after the following basic steps (systematically performed in duplicate for each product): • treatment of the cells lines with the various products at three different concentrations, deduced from a preliminary cytotoxicology test (MTT-assay): a reference concentration corresponding to 80% cell viability, a concentration 10-fold higher—when possible—and a concentration 10-fold lower, • preparation of total RNA and of the corresponding radio-labelled cDNA probes, • hybridisation of the cDNA probes: the Safe-Hit macroarray contains 682 independent clones, corresponding to alterations in gene splicing induced by overexpression of WTp53 (p53 is the most ubiquitous “mediator” of cell stress, chosen for the development of this methodology), • acquisition and determination of the Toxicity Index. 4.1.2. Cells
The cells used in the study (preliminary MTT-assay of cytotoxicity and the main test) are cryopreserved hepatocytes from Sprague-Dawley rats in primary culture (batches Hep184005 and Hep184006-Biopredic), cultured under standard conditions.
The cells are seeded and cultured for 16 hours with each product, at the three concentrations chosen on the basis of the preliminary MTT-assay; two controls (untreated cells in solvent alone) are added to the series.
The results of the two Safe-Hit analyses are then compared and combined to assess the potential toxicity of the various compounds tested. Two parameters that can be modified by the user are involved in the calculation of the Toxicity Index: • Background Threshold (BT) smoothes out weak signals, close to background noise and not attributable to significant gene expression. […] The value of this parameter is usually 2 or less than 2 in order to obtain relevant results. […]
Toxicity Indices (TI) were determined as described above. […] Two separate analyses were performed using two levels of differentiation (Induction Factor-IF) in relation to the untreated controls: • a factor of at least 1.7 in relation to the untreated controls. This factor of 1.7 times represents the weakest value that allows an index not to be obtained in relation to the two untreated controls. • a factor of at least 2 in relation to the untreated controls. This factor of 2 times allows the most robust signals to be taken into account. 4.3.1. Induction Factor of 1.7 in Relation to Untreated Control (Table 7)

3H-paroxetine binding = target: T1, 3H-paroxetine binding (Rattus norvegicus, UniProt P31652); assay: Paroxetine binding, rat hypothalamus membranes
T1 construct: the hypothalamus was removed, weighed and homogenised on a Dounce; from tissue
Protocol: 2.1.3. Paroxetine Binding
Male Sprague-Dawley rats (Janvier) weighing 180-200 g were used. The hypothalami of several rats were collected and homogenised in 5 ml of chilled buffer (50 mM Tris-HCL, 120 mM NaCl, 5 mM KCl, pH 7.5) on a Dounce, and the homogenate was centrifuged at 30 000 g (27 000 rpm-Beckman. L5-50E, T40 rotor) for 10 min. The residue obtained was recovered in 5 ml of buffer and re-centrifuged under the same conditions. The new residue was recovered in the same buffer and finally re-homogenised on a Dounce at a tissue concentration of 10 mg/ml. The membrane suspension (100 μl) was incubated with 3H-paroxetine (NEN, France, 28.6 Ci/mmol) at a concentration (final) of 0.1 nM, at 20° C., in a final volume of 1 ml for 2 hr. After 2 hr incubation, the reaction was stopped by vacuum filtration on Whatman GF/F filters pre-treated in a 0.05% solution of polyethylenimine 30 min beforehand (prediluted with 4 ml of chilled buffer, then the tube was rinsed with 2 times 4 ml). Radioactivity was measured by liquid scintillation spectrometry (Packard, Tricarb 4640) using Emulsifier-Safe (Packard) as the scintillating agent.
Specific ^3H-paroxetine binding was defined as the difference between total binding and that remaining in the presence of 10 μM of fluoxetine.
The IC50 were determined by transposing the percentages of inhibition onto a graph in relation to the log of the concentration of the product (6 concentrations in duplicate).

3H-norepinephrine uptake [2] = target: T2, 3H-norepinephrine uptake (Rattus norvegicus, UniProt Q63380); assay: biochemical
Protocol: (§1) Norepinephrine Uptake by a Homogenate (P2) of Rat Hypothalamus.
(§2) Male Sprague-Dawley rats, from 200 to 300 g, were stunned and decapitated, and the hypothalami were rapidly removed. Two hypothalami are homogenised in 4 ml of sucrose 0.32 M on a Potter S by 16 complete passes back and forth at 800 rpm, then centrifuged for 10 min at 1,000 g to eliminate cell debris. The supernate is centrifuged for 20 min at 10,000 g and the P2 thus obtained is recovered in 4 ml of sucrose 0.32 M, and homogenised on a Dounce.
(§3) ^3H-(1)-NE: 13 Ci/mmol (Amersham) is used.
(§4) Uptake takes place in a phosphate buffer (containing 8 g of NaCl, 1.21 g of K2HPO4 and 0.34 g of KH2PO4 per liter) pre-oxygenated 30 min before use with a mixture of O2/CO2 (95%/5%).
(§5) In 5-ml plastic tubes placed in a water bath at 37° C., the following are introduced: • 100 μl of buffer or inhibitor, • 700 μl of buffer (containing 25 μM pargyline), • 100 μl of P2.
(§6) After temperature balance, the reaction begins by the addition of 100 μl of ^3H-NE, 50 nM final concentration.
(§7) Exactly 10 min later, the reaction is stopped by adding 2.5 ml of chilled buffer and filtering through GF/F filters. The tube is then rinsed once and the filter once with 2.5 ml of chilled buffer. The filter is then introduced into a Beckman mini-vial and, after adding 3 ml of Instagel (Packard) liquid scintillator, radioactivity is measured with a Tricarb Packard scintillation counter.
(§8) Non-specific uptake (NS) is measured as the presence of DMI 10^−5 M.
(§9) The percentage of inhibition is calculated using the formula:
(§10) The IC50 is determined graphically on the mean curve of percentage of inhibition (4 assays) in relation to the log of the concentration of inhibitor.

[3] = Pharmacokinetic study in man (12 healthy subjects), racemate or one enantiomer alone; assay type: in vivo; settings: human, plasma; for half-life: read-out: T½ (converted)
Protocol: A pharmacokinetic study in man involving 12 healthy subjects was performed by administering the racemate or one of the two enantiomers alone.

3H-serotonin uptake = target: T3, 3H-serotonin uptake (Rattus norvegicus, UniProt P31652); assay: Serotonin uptake, rat hypothalamus P2 fraction (synaptosomes); assay type: biochemical
T3 construct: the hypothalamus was removed, weighed and homogenised on a Dounce; from tissue
Protocol: After homogenisation of brain tissue in a sucrose solution, the presynaptic terminals break away from the axon and close to form synaptosomes obtained by subcellular fractionation.
Male Sprague-Dawley (Janvier) rats weighing 180-200 g were used.
This homogenate was centrifuged for 10 min at 1,000 g (2,400 rpm-Hettich, Rotenta). […] The residue (called the P2 fraction) was recovered in sucrose at a concentration of 50 mg/ml.
Exactly 5 min after the start of incubation, the reaction was stopped by vacuum filtration on Whatman GF/F filters (predilution with 2.5 ml of chilled buffer then rinsing with 3 times 2.5 ml).
The IC50 were determined by transposing the percentages of inhibition onto a graph in relation to the log of the product concentration (6 concentrations in duplicate).

3H-norepinephrine uptake [4] = target: T2, 3H-norepinephrine uptake; settings: read-out: IC50 3H-Norepinephrine uptake; rat hypothalamus P2, 3H-NE 50 nM, 10 min, 37° C.
Protocol: as §1, §2, §3, §4, §5, §6, §7, §8, §9, §10

[5] = enantiomer administered alone (25 mg)
[6] = enantiomer assayed after F2207 (50 mg)

T3 sequence (P31652 whole entry): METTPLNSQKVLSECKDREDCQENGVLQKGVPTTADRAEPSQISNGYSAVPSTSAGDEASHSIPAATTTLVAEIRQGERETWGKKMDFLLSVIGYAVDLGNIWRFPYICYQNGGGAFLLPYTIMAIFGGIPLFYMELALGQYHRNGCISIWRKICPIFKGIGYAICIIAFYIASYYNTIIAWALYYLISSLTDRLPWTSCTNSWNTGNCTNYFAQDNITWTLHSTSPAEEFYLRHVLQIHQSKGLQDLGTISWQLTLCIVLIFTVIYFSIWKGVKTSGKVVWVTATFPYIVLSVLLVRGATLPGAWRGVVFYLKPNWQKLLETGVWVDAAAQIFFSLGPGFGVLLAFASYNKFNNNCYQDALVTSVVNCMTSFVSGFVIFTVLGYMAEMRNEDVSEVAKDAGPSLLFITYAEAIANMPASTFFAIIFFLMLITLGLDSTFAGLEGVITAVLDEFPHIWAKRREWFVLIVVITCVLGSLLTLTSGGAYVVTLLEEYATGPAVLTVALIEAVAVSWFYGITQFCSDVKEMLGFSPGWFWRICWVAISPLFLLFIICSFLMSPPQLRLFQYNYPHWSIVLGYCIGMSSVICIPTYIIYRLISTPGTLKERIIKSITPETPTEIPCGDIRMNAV
T1 sequence (P31652 whole entry): as above
T2 sequence (Q63380 1-617): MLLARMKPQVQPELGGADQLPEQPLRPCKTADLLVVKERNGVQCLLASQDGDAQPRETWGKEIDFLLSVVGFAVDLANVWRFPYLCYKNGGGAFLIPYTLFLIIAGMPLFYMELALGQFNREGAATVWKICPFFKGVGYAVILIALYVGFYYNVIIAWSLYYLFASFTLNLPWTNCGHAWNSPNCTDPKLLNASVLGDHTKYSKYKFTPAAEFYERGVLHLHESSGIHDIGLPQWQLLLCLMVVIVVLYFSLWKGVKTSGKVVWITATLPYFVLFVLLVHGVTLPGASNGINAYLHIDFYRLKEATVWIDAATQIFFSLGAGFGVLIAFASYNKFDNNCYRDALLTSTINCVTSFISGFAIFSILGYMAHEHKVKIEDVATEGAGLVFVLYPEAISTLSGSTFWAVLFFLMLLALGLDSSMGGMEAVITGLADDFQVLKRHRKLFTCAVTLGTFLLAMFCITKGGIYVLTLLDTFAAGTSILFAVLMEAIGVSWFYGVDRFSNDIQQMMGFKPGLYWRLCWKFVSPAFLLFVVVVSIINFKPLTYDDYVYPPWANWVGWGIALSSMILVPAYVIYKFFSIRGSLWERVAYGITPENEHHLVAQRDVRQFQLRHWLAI

Structure (SMILES): CCN(CC)C(=O)[C@]1(c2ccccc2)C[C@@H]1CN [F2696, Z-(1R, 2S)-2-(aminomethyl)-N,N-diethyl-1-phenyl cyclopropane carboxamide]
- Plasma concentrations of the enantiomers compared ([1]; monkey): approximately equivalent
- Plasma concentrations of the enantiomers compared ([1]; rat): approximately equivalent
- Clone G09 (H. sapiens mitochondrion, cytochrome b), regulation factor vs untreated control (primary rat hepatocytes; 100 μM): 2.09
- Clone I01 (H. sapiens mitochondrion, cytochrome c oxidase subunit 1), regulation factor vs untreated control (primary rat hepatocytes; 100 μM): 2.05
- Clone L01 (H. sapiens divalent cation tolerant protein CUTA mRNA), regulation factor vs untreated control (primary rat hepatocytes; 100 μM): 2.05
- Clone M07 (H. sapiens mitochondrion, cytochrome c oxidase subunit 1), regulation factor vs untreated control (primary rat hepatocytes; 100 μM): 2.25
- Clone M12 (H. sapiens mRNA; cDNA DKFZp564C1563), regulation factor vs untreated control (primary rat hepatocytes; 100 μM): 0.21
- Clone W17 (H. sapiens mitochondrion, hypoxia inducible gene-14), regulation factor vs untreated control (primary rat hepatocytes; 100 μM): 2.96
- Clone T08 (H. sapiens mRNA for KIAA1185 protein), regulation factor vs untreated control (primary rat hepatocytes; Sprague-Dawley, rat, 1 μM): 0.50
- Clone U04 (H. sapiens translation initiation factor elF-2alpha mRNA), regulation factor vs untreated control (primary rat hepatocytes; Sprague-Dawley, rat, 1 μM): 0.57
- Number of down-regulated clones (Down) (primary rat hepatocytes; Sprague-Dawley, rat, 1 μM): 2
- Clone AC13 (H. sapiens 7S RNA L gene), regulation factor vs untreated control (primary rat hepatocytes; Sprague-Dawley, rat, 10 μM): 0.22
- Clone T08 (H. sapiens mRNA for KIAA1185 protein), regulation factor vs untreated control (primary rat hepatocytes; Sprague-Dawley, rat, 10 μM): 0.22
- Clone U04 (H. sapiens translation initiation factor elF-2alpha mRNA), regulation factor vs untreated control (primary rat hepatocytes; Sprague-Dawley, rat, 10 μM): 0.26
- Clone X02 (unk), regulation factor vs untreated control (primary rat hepatocytes; Sprague-Dawley, rat, 10 μM): 0.29
- Number of down-regulated clones (Down) (primary rat hepatocytes; Sprague-Dawley, rat, 10 μM): 5
- Clone A20 (H. sapiens initiation factor elF-5A gene), regulation factor vs untreated control (primary rat hepatocytes; Sprague-Dawley, rat, 100 μM): 0.56
- Clone AC13 (H. sapiens 7S RNA L gene), regulation factor vs untreated control (primary rat hepatocytes; Sprague-Dawley, rat, 100 μM): 0.16
- Clone C01 (H. sapiens mitochondrion, 16S), regulation factor vs untreated control (primary rat hepatocytes; Sprague-Dawley, rat, 100 μM): 3.20
- Clone E11 (H. sapiens chlordecone reductase homolog liver, mRNA), regulation factor vs untreated control (primary rat hepatocytes; Sprague-Dawley, rat, 100 μM): 2.12
- Clone I18 (H. sapiens 18S rRNA gene), regulation factor vs untreated control (primary rat hepatocytes; Sprague-Dawley, rat, 100 μM): 2.38
- Clone J03 (H. sapiens CLP mRNA), regulation factor vs untreated control (primary rat hepatocytes; Sprague-Dawley, rat, 100 μM): 2.12
- Clone L22 (H. sapiens mRNA for Lon protease-like protein), regulation factor vs untreated control (primary rat hepatocytes; Sprague-Dawley, rat, 100 μM): 1.78
- Clone M23 (Sequence 21 from U.S. Pat. No. 5,851,764), regulation factor vs untreated control (primary rat hepatocytes; Sprague-Dawley, rat, 100 μM): 1.95
- Clone P05 (H. sapiens PAC clone DJ404K21 from Xq23), regulation factor vs untreated control (primary rat hepatocytes; Sprague-Dawley, rat, 100 μM): 1.78
- Clone Q24 (H. sapiens 28S ribosomal RNA gene), regulation factor vs untreated control (primary rat hepatocytes; Sprague-Dawley, rat, 100 μM): 1.77
- Clone T08 (H. sapiens mRNA for KIAA1185 protein), regulation factor vs untreated control (primary rat hepatocytes; Sprague-Dawley, rat, 100 μM): 0.20
- Clone U04 (H. sapiens translation initiation factor elF-2alpha mRNA), regulation factor vs untreated control (primary rat hepatocytes; Sprague-Dawley, rat, 100 μM): 0.19
- Clone X02 (unk), regulation factor vs untreated control (primary rat hepatocytes; Sprague-Dawley, rat, 100 μM): 0.20
- Clone X06 (H. sapiens Genomic sequence from 9q34), regulation factor vs untreated control (primary rat hepatocytes; Sprague-Dawley, rat, 100 μM): 0.16
- Clone X23 (unk), regulation factor vs untreated control (primary rat hepatocytes; Sprague-Dawley, rat, 100 μM): 1.92
- Clone Y17 (H. sapiens 28S ribosomal RNA gene), regulation factor vs untreated control (primary rat hepatocytes; Sprague-Dawley, rat, 100 μM): 2.65
- IC50 (3H-paroxetine binding): 700 nM
- IC50 (3H-norepinephrine uptake [2]): 750 nM
- AUC(0-inf) [3, 5]: 1.54 µM·h
- Cmax [3, 5]: 212 nM
- Tmax [3, 5]: 2.21 h
- half-life [3, 5]: 5.58 h
- AUC(0-inf) [3, 6]: 1.56 µM·h
- Cmax [3, 6]: 179 nM
- Tmax [3, 6]: 2.87 h
- half-life [3, 6]: 5.75 h
- IC50 (3H-serotonin uptake): 600 nM

Structure (SMILES): CCN(CC)C(=O)C1(c2ccccc2)CC1CN (racemic) [F2207, Z(±)-2-(aminomethyl)-N,N-diethyl-1-phenyl cyclopropane carboxamide]
- IC50 (3H-norepinephrine uptake [4]): 30 nM
- IC50 (3H-paroxetine binding): 130 nM
- IC50 (3H-serotonin uptake): 150 nM

Structure (SMILES): CCN(CC)C(=O)[C@@]1(c2ccccc2)C[C@H]1CN [F2695, Z-(1S,2R)-2-(aminomethyl)-N,N-diethyl-1-phenyl cyclopropane carboxamide]
- Plasma concentrations of the enantiomers compared ([1]; monkey): approximately equivalent
- Plasma concentrations of the enantiomers compared ([1]; rat): approximately equivalent
- Clone Q11 (unk), regulation factor vs untreated control (primary rat hepatocytes; Sprague-Dawley, rat, 100 μM): 1.81
- Number of down-regulated clones (Down) (primary rat hepatocytes; Sprague-Dawley, rat, 100 μM): 1
- Number of up-regulated clones (Up) (primary rat hepatocytes; Sprague-Dawley, rat, 100 μM): 1
- IC50 (3H-paroxetine binding): 60 nM
- IC50 (3H-norepinephrine uptake [2]): 15 nM
- AUC(0-inf) [3, 5]: 2.87 µM·h
- Cmax [3, 5]: 216 nM
- Tmax [3, 5]: 3.08 h
- half-life [3, 5]: 9.38 h
- AUC(0-inf) [3, 6]: 2.9 µM·h
- Cmax [3, 6]: 214 nM
- Tmax [3, 6]: 3.42 h
- half-life [3, 6]: 9.28 h
- IC50 (3H-serotonin uptake): 46 nM

From patent publication USRE43879E1, “Use of the dextrogyral enantiomer of milnacipran for the preparation of a drug” (priority 2003, dated 2012)
